Results reported in patent EP0302934A1, “ALICYCLIC DICARBOXYLIC ACID DERIVATIVES AND MUSCLE RELAXANTS CONTAINING THEM AS EFFECTIVE INGREDIENTS” (NIPPON ZEON CO., LTD., priority 1987, dated 1988).
“Also recorded” adds a separate entry of the source.

How the values were obtained:
ICR male mice = test: Horizontal wire test; format: in vivo; conditions: maximum number of fallen mice out of 6 per group; 100 mg/kg-body weight orally, suspended in 0.4% aqueous carboxymethyl cellulose
Text: Thereafter, at constant intervals of time, the mice were suspended by their forepaws on the metallic wire held horizontally, and the number of animals failing to hang was counted.

Wister male rats = test: Test method using anaemic decerebrate rigidity animals; format: in vivo; conditions: 3 mg/kg body weight intravenously in polyethylene glycol; three rats per group; visually followed over 60 minutes
Procedure: Each of Compound 1 and Compound 3 obtained in the synthesis examples was dissolved into 100% polyethylene glycol (molecular weight ca. 400) to prepare test drugs having a concentration of 0.3%. According to the method of Fukuda et al. (Fukuda, H., Ito, T., Hashimoto, S. and Kudo, Y., Japan. J. Pharmacol., (1974) 24; 810), the rigidity was induced in Wister male rats (body weight 250 to 350 g). Thus, by ligating both the common carotid arteries and coagulating the basilarartery by means of high frequency wave, the rigidity was induced in the fore legs of the animals. Using three animals as one group, each test drug was intravenously administered to the animals so that the amount of active ingredient came to 3 mg/kg body weight. Thereafter, whether the rigidity in the fore legs of the rat was relaxed or not was visually followed over a continuous 60 minutes.

in vivo = test: in vivo; parameters: species or system mice; conditions: mouse, po
Procedure: ICR male mice (body weight 20 to 30 g, 10 animals per one group) were used for the test.
A test drug was prepared by suspending Compound 3 into 0.4% aqueous solution of carboxymethyl cellulose, and it was orally administered.
Thereafter, the state of the animals was visually observed for 5 days. As the result, LD50 (mg/kg) was 1,000 mg/kg or more.

Molecule | No. of fallen cases (ICR male mice) | rigidity in the fore legs relaxed or not (Wister male rats) | LD50 at 120 h (in vivo)
CC1C=CCC2C(=O)N(c3cc(Cl)cc(Cl)c3)C(=O)C12 (centres unmarked) [Compound 1, N-(3^1,5^1-Dichlorophenyl)-3-methyl-4-cyclohexene-l,2-dicarboxylic Acid Imide] | 5 | the rigidity disappeared | 
2-(3',5'-Dichlorophenylcarbamoyl)-3(6)-methyl-4-cyclohexenecarboxylic Acid [Compound 5] | 3 |  | 
CC1C=CC(C)C2C(=O)N(c3cc(Cl)cc(Cl)c3)C(=O)C12 (centres unmarked) [Compound 3, N-(3',5'-Dichlorophenyl)-3,6-dimethyl-4-cyclohexene-1,2-dicarboxylic acid imide] | 3 | the rigidity disappeared; also recorded: particularly marked rigidity - eliminating effect | ≥ 1000 mg/kg
CC1C=CC(C)C(C(=O)Nc2cc(Cl)cc(Cl)c2)C1C(=O)[O-].[Na+] (centres unmarked) [Compound 7, Sodium 2-(3',5'-Dichlorophenyl-carbamoyl)-3,6-dimethyl-4-cyclohexenecarboxylate] | 3 |  | 
CC1CCC(C)C2C(=O)N(c3cc(Cl)cc(Cl)c3)C(=O)C12 (centres unmarked) [Compound 4, N-(3' ,5'-Dichlorophenyl)-3,6-dimethyicyclo-hexane-l,2-dicarboxylic acid imide] | 3 |  | 
